According to paper PMC8373216, “Development and Preclinical Evaluation of New Inhaled Lipoglycopeptides for the Treatment of Persistent Pulmonary Methicillin-Resistant Staphylococcus aureus Infections” (Antimicrobial Agents and Chemotherapy, 2021):
In brackets after ≈: the same amount, converted by molar mass. Where two headings read alike, the source gives them in different places.

Key:
[1] = test system: MRSA ATCC BAA 1556 (USA300); test: In-house broth microdilution MIC screening; format: cell-based, Staphylococcus aureus; settings: Staphylococcus aureus, read-out: MIC Value, MRSA ATCC BAA 1556
[2] = test system: Staphylococcus epidermidis; test: Expanded panel broth microdilution MIC/MBC; format: cell-based; settings: for MIC: Staphylococcus epidermidis
Enterococcus faecium = test: Expanded panel broth microdilution MIC/MBC; format: cell-based; settings: for MIC: Enterococcus faecium
Streptococcus agalactiae = test: Expanded panel broth microdilution MIC/MBC; format: cell-based
[3] = test system: Streptococcus dysgalactiae; test: Expanded panel broth microdilution MIC/MBC; format: cell-based; settings: for MIC: Streptococcus dysgalactiae
Streptococcus anginosus = test: Expanded panel broth microdilution MIC/MBC; format: cell-based; settings: for MIC: Streptococcus anginosus
[4] = test system: Streptococcus constellatus; test: Expanded panel broth microdilution MIC; format: cell-based
Streptococcus oralis = test: Expanded panel broth microdilution MIC; format: cell-based
Clostridium. perfringens = test: microbe, parasite or virus in culture; format: cell-based
[5] = test system: Peptostreptococcus anaerobius; test: Expanded panel broth microdilution MIC; format: cell-based
Cutibacterium acnes = test: Expanded panel broth microdilution MIC; format: cell-based
S. aureus = test: Expanded panel broth microdilution MIC/MBC; settings: for MIC: Staphylococcus aureus
[6] = test system: MRSA ATCC BAA 1556 (USA300) biofilm; test: Static MRSA biofilm killing, plastic microtiter plate, MEM

For `CCCCCCCCCCNCCN[C@@]1(C)C[C@H](O[C@H]2[C@H](Oc3c4cc5cc3Oc3ccc(cc3Cl)[C@@H](O)[C@@H](NC(=O)[C@@H](CC(C)C)NC)C(=O)N[C@@H](CC(N)=O)C(=O)N[C@H]5C(=O)N[C@H]3C(=O)N[C@H](C(=O)N[C@H](C(=O)O)c5cc(O)c(CNCP(=O)(O)O)c(O)c5-c5cc3ccc5O)[C@H](O)c3ccc(c(Cl)c3)O4)O[C@H](CO)[C@@H](O)[C@@H]2O)O[C@@H](C)[C@H]1O` [Telavancin, telavancin], which MIC [1] is on record?
The MIC was 0.063 µg/mL (≈ 0.0359 µM).

What about the “MIC:MBC” value ([2]; S. epidermidis MRSE, MBC on one organism) of the same compound?
The value was 1.

And the MIC ([2]; ATCC49134, S. epidermidis ATCC 49134, MSSE)?
Its MIC is 0.12 µg/mL (≈ 0.0684 µM).

And the MIC ([2]; MRSE, S. epidermidis MMX 762, MRSE)?
Its MIC is 0.12 µg/mL (≈ 0.0684 µM).

And the MIC ([2]; MRSE, S. epidermidis MMX 5145, MRSE)?
Its MIC is 0.03 µg/mL (≈ 0.0171 µM).

And the MIC ([2]; MRSE, read-out: MIC (median), S. epidermidis MRSE, 2 isolates)?
Its MIC is 0.12 µg/mL (≈ 0.0684 µM).

And the MIC ([2]; S. epidermidis MSSE, 1 isolate)?
Its MIC is 0.12 µg/mL (≈ 0.0684 µM).

What about the “MIC:MBC” value (Enterococcus faecium; E. faecium VanA VRE) of the same compound?
The value was over 4.

What about the “MIC:MBC” value (Enterococcus faecium; E. faecium VanB VRE) of the same compound?
The value was over 8.

What about the MIC (Enterococcus faecium; E. faecium MMX 4204, VSE) of the same compound?
Its MIC is 0.06 µg/mL (≈ 0.0342 µM).

And the MIC (Enterococcus faecium; E. faecium VSE, 1 isolate)?
Its MIC is 0.06 µg/mL (≈ 0.0342 µM).

And the MIC (Enterococcus faecium; VRE, E. faecium MMX 173, VanB VRE)?
The MIC was 0.06 µg/mL (≈ 0.0342 µM).

What about the MIC (Enterococcus faecium; VRE, E. faecium MMX 851, VanA VRE) of the same compound?
The MIC was 2 µg/mL (≈ 1.14 µM).

What about the MIC (Enterococcus faecium; VRE, E. faecium VanA VRE, 1 isolate) of the same compound?
Its MIC is 2 µg/mL (≈ 1.14 µM).

And the MIC (Enterococcus faecium; VRE, E. faecium VanB VRE, 1 isolate)?
The MIC was 0.06 µg/mL (≈ 0.0342 µM).

And the MIC (Streptococcus agalactiae; S. agalactiae MMX 4115, ermR)?
Its MIC is 0.06 µg/mL (≈ 0.0342 µM).

What about the MIC (Streptococcus agalactiae; S. agalactiae ermR, 1 isolate) of the same compound?
Its MIC is 0.06 µg/mL (≈ 0.0342 µM).

And the “MIC:MBC” value (Streptococcus agalactiae; S. agalactiae, MBC on one organism)?
The value was over 8.

What about the MIC (Streptococcus agalactiae; Streptococcus agalactiae) of the same compound?
Its MIC is 0.06 µg/mL (≈ 0.0342 µM).

And the MIC (Streptococcus agalactiae; Streptococcus agalactiae, ATCC13813)?
Its MIC is 0.06 µg/mL (≈ 0.0342 µM).

What about the MIC (Streptococcus agalactiae; Streptococcus agalactiae, read-out: MIC (median)) of the same compound?
The MIC was 0.06 µg/mL (≈ 0.0342 µM).

And the “MIC:MBC” value ([3]; S. dysgalactiae, MBC on one organism)?
The value was 4.

And the MIC ([3]; S. dysgalactiae MMX 5121)?
Its MIC is 0.12 µg/mL (≈ 0.0684 µM).

And the MIC ([3]; S. dysgalactiae MMX 5123)?
The MIC was 0.25 µg/mL (≈ 0.142 µM).

What about the MIC ([3]; S. dysgalactiae MMX 5124) of the same compound?
Its MIC is 0.03 µg/mL (≈ 0.0171 µM).

And the MIC ([3]; read-out: MIC (median), S. dysgalactiae, 3 isolates)?
The MIC was 0.12 µg/mL (≈ 0.0684 µM).

And the “MIC:MBC” value (Streptococcus anginosus; S. anginosus AGS)?
Its value is over 8.

What about the MIC (Streptococcus anginosus) of the same compound?
Its MIC is 0.06 µg/mL (≈ 0.0342 µM).

What about the MIC (Streptococcus anginosus; ATCC33397) of the same compound?
Its MIC is 0.06 µg/mL (≈ 0.0342 µM).

And the MIC ([4]; S. constellatus AGS, 1 isolate)?
The MIC was 0.03 µg/mL (≈ 0.0171 µM).

What about the MIC ([4]; Streptococcus constellatus) of the same compound?
Its MIC is 0.03 µg/mL (≈ 0.0171 µM).

What about the MIC (Streptococcus oralis; S. oralis MGS, 1 isolate) of the same compound?
Its MIC is 0.06 µg/mL (≈ 0.0342 µM).

What about the MIC (Streptococcus oralis; Streptococcus oralis) of the same compound?
Its MIC is 0.06 µg/mL (≈ 0.0342 µM).

And the MIC (Clostridium. perfringens)?
Its MIC is 0.015 µg/mL (≈ 0.00854 µM).

And the MIC (Clostridium. perfringens; ATCC13124, read-out: MIC)?
The MIC was 0.015 µg/mL (≈ 0.00854 µM).

And the MIC [5]?
The MIC was 0.03 µg/mL (≈ 0.0171 µM).

And the MIC ([5]; ATCC27337)?
Its MIC is 0.03 µg/mL (≈ 0.0171 µM).

What about the MIC (Cutibacterium acnes; ATCC6919) of the same compound?
Its MIC is 0.03 µg/mL (≈ 0.0171 µM).

What about the MIC (Cutibacterium acnes; ATCC11827) of the same compound?
Its MIC is 0.015 µg/mL (≈ 0.00854 µM).

And the MIC (Cutibacterium acnes; read-out: MIC (median))?
Its MIC is 0.02 µg/mL (≈ 0.0114 µM).

And the “MIC:MBC” value (S. aureus; S. aureus MRSA, MBC median of n = 5)?
Its value is 1.

And the “MIC:MBC” value (S. aureus; S. aureus MSSA, MBC on one organism)?
The value was 1.

What about the “MIC:MBC” value (S. aureus; S. aureus VISA, MBC median of n = 2) of the same compound?
The value was 1.

What about the “MIC:MBC” value (S. aureus; S. aureus hVISA, MBC on one organism) of the same compound?
The value was 1.

And the MIC (S. aureus; ATCC13709 / MSSA, S. aureus ATCC 13709, MSSA)?
Its MIC is 0.12 µg/mL (≈ 0.0684 µM).

What about the MIC (S. aureus; ATCC29213 / MSSA, S. aureus ATCC 29213, MSSA) of the same compound?
The MIC was 0.06 µg/mL (≈ 0.0342 µM).

And the MIC (S. aureus; ATCC43300 / MRSA, S. aureus ATCC 43300, MRSA)?
The MIC was 0.06 µg/mL (≈ 0.0342 µM).

What about the MIC (S. aureus; ATCCBAA1556|MRSA|USA300, S. aureus ATCC BAA-1556, MRSA, USA300 (expanded panel)) of the same compound?
The MIC was 0.06 µg/mL (≈ 0.0342 µM).

And the MIC (S. aureus; ATCCBAA1756|MRSA|NRS384|USA300, S. aureus NRS 384, ATCC BAA-1756, MRSA, USA300)?
The MIC was 0.06 µg/mL (≈ 0.0342 µM).

What about the MIC (S. aureus; MRSA / NRS123 / USA400, S. aureus NRS123, MRSA, USA400) of the same compound?
The MIC was 0.06 µg/mL (≈ 0.0342 µM).

And the MIC (S. aureus; MRSA / NRS725 / USA300, S. aureus NRS725, MRSA, USA300)?
The MIC was 0.06 µg/mL (≈ 0.0342 µM).

What about the MIC (S. aureus; MRSA / USA300, S. aureus MMX 3982, MRSA, USA300) of the same compound?
The MIC was 0.06 µg/mL (≈ 0.0342 µM).

And the MIC (S. aureus; MRSA, S. aureus MMX 5715, MRSA)?
The MIC was 0.06 µg/mL (≈ 0.0342 µM).

And the MIC (S. aureus; MRSA, S. aureus MMX 7899, MRSA)?
The MIC was 0.06 µg/mL (≈ 0.0342 µM).

What about the MIC (S. aureus; MRSA, S. aureus MMX 7900, MRSA) of the same compound?
The MIC was 0.06 µg/mL (≈ 0.0342 µM).

What about the MIC (S. aureus; MRSA, S. aureus MMX 7901, MRSA) of the same compound?
Its MIC is 0.03 µg/mL (≈ 0.0171 µM).

And the MIC (S. aureus; MRSA, S. aureus MMX 7902, MRSA)?
The MIC was 0.06 µg/mL (≈ 0.0342 µM).

And the MIC (S. aureus; MRSA, S. aureus MMX 7903, MRSA)?
Its MIC is 0.06 µg/mL (≈ 0.0342 µM).

And the MIC (S. aureus; MRSA, read-out: MIC (median), S. aureus MRSA, 12 isolates)?
The MIC was 0.06 µg/mL (≈ 0.0342 µM).

What about the MIC (S. aureus; MSSA, S. aureus MMX 7907, MSSA) of the same compound?
Its MIC is 0.06 µg/mL (≈ 0.0342 µM).

What about the MIC (S. aureus; MSSA, S. aureus MMX 7908, MSSA) of the same compound?
The MIC was 0.12 µg/mL (≈ 0.0684 µM).

What about the MIC (S. aureus; MSSA, read-out: MIC (median), S. aureus MSSA, 4 isolates) of the same compound?
The MIC was 0.09 µg/mL (≈ 0.0513 µM).

What about the MIC (S. aureus; NRS1 / VISA, S. aureus NRS1, VISA, Mu50) of the same compound?
The MIC was 0.5 µg/mL (≈ 0.285 µM).

What about the MIC (S. aureus; NRS2, S. aureus NRS2, hVISA;Mu3) of the same compound?
Its MIC is 0.12 µg/mL (≈ 0.0684 µM).

What about the MIC (S. aureus; NRS4 / VISA, S. aureus NRS4, VISA) of the same compound?
The MIC was 0.25 µg/mL (≈ 0.142 µM).

And the MIC (S. aureus; NRS13 / VISA, S. aureus NRS13, VISA)?
The MIC was 0.12 µg/mL (≈ 0.0684 µM).

What about the MIC (S. aureus; NRS22 / VISA, S. aureus NRS22, VISA) of the same compound?
The MIC was 0.5 µg/mL (≈ 0.285 µM).

And the MIC (S. aureus; NRS23, S. aureus NRS23, hVISA)?
The MIC was 0.25 µg/mL (≈ 0.142 µM).

And the MIC (S. aureus; NRS52 / VISA, S. aureus NRS52, VISA)?
Its MIC is 0.25 µg/mL (≈ 0.142 µM).

What about the MIC (S. aureus; VISA, read-out: MIC (median), S. aureus VISA, 5 isolates) of the same compound?
Its MIC is 0.25 µg/mL (≈ 0.142 µM).

And the MIC (S. aureus; read-out: MIC (median), S. aureus hVISA, 2 isolates)?
Its MIC is 0.19 µg/mL (≈ 0.108 µM).

What about the “Reduction in MRSA biofilm titer versus control” value ([6]; doses 1 to 10 μg/ml) of the same compound?
The value was “approximately 2 log10 CFU/ml”.

What about the “Concentrations with statistically significant reduction versus control biofilm” value ([6]; two-way ANOVA, Bonferroni) of the same compound?
Its value is at least 10 µg/mL.
